Assay results reported in ChEMBL document CHEMBL4402583, “Rational Substitution of ε-Lysine for α-Lysine Enhances the Cell and Membrane Selectivity of Pore-Forming Melittin” (J Med Chem, 2020).
≈ marks a conversion by molar mass, not a printed value.

Experiments:
Enterococcus faecalis [1] = assay: Antibacterial activity against Mel-5-resistant vancomycin-resistant Enterococcus faecalis 1010 assessed as reduction in bacterial growth measured after 24 hrs by broth microdilution method; type: functional; details: Enterococcus faecalis, 1010, 24 h
Staphylococcus aureus [2] = assay: In vivo antibacterial activity against Staphylococcus aureus ATCC 29213 infected in C57BL/6 mouse assessed as reduction in bacterial burden by measuring log10 CFU/cornea at 0.3% administered topically as two times on day 1, four times on day 2 and two times on day 3 measured at 48 hrs post-final dose by 10 fold serial dilution method (reference value: 6.5 +/- 0.7 log10CFU); type: functional
Enterococcus faecalis [3] = assay: Ratio of MIC for vancomycin-resistant Enterococcus faecalis 1010 to MIC for Mel-5-resistant vancomycin-resistant Enterococcus faecalis 1010 incubated for 24 hrs by broth microdilution method; type: functional
Enterococcus faecalis [4] = assay: Antibacterial activity against vancomycin-resistant Enterococcus faecalis 1010 assessed as reduction in bacterial growth measured after 24 hrs by broth microdilution method; type: functional; details: Enterococcus faecalis, 1010, 24 h
Enterococcus faecalis [5] = assay: Ratio of MIC for Mel-5-resistant vancomycin-resistant Enterococcus faecalis 1010 to MIC for vancomycin-resistant Enterococcus faecalis 1010 incubated for 24 hrs by broth microdilution method; type: functional
Enterococcus faecalis [6] = assay: Resistance index, ratio of MIC for vancomycin-resistant Enterococcus faecalis 1010 measured after 14 serial passages by broth microdilution method to MIC for vancomycin-resistant Enterococcus faecalis 1010 incubated for 24 hrs by broth microdilution method; type: functional
NHDF [7] = assay: Cytotoxicity against HDF cells assessed as reduction in metabolic activity at 500 ug/ml incubated for 24 hrs by MTS assay relative to control; type: ADME, cell-based; set-up: scale not given: the % may be the effect or the level left; details: human
[8] = Cytotoxicity against HDF cells assessed as minimum cytotoxic concentration incubated for 24 hrs by MTS assay; type: cell-based; details: human, HDF cells (NHDF, human dermal fibroblasts)
Pseudomonas aeruginosa = assay: Antibacterial activity against Pseudomonas aeruginosa assessed as reduction in bacterial growth incubated for 24 hrs by broth microdilution method; type: functional
Staphylococcus aureus [9] = assay: Antibacterial activity against Staphylococcus aureus assessed as reduction in bacterial growth incubated for 24 hrs by broth microdilution method; type: functional
Candida albicans = assay: Antifungal activity against Candida albicans assessed as reduction in fungal growth incubated for 24 hrs by broth microdilution method; type: functional
[10] = Cytotoxicity against HDF cells assessed as cell viability at 125 ug/ml incubated for 24 hrs by MTS assay relative to control; type: cell-based; details: human, HDF cells (NHDF, human dermal fibroblasts); read-out: Activity
[11] = Cytotoxicity against HDF cells assessed as cell viability at 250 ug/ml incubated for 24 hrs by MTS assay relative to control; type: cell-based; details: human, HDF cells (NHDF, human dermal fibroblasts); read-out: Activity
Lipid bilayer [12] = assay: Induction of pore formation in negatively charged DOPE/DOPG large unilamellar vesicles assessed as calcein release at 0.39 to 50 uM measured for 60 mins by fluorescence based assay
Lipid bilayer [13] = assay: Induction of pore formation in zwitterionic DOPC/cholesterol large unilamellar vesicles assessed as calcein release at 0.39 to 50 uM measured for 60 mins by fluorescence based assay
Staphylococcus aureus [14] = assay: Antibacterial activity against methicillin-sensitive Staphylococcus aureus assessed as reduction in bacterial growth incubated for 24 hrs by broth microdilution method; type: functional
Staphylococcus aureus [15] = assay: Antibacterial activity against methicillin-resistance Staphylococcus aureus assessed as reduction in bacterial growth incubated for 24 hrs by broth microdilution method; type: functional
Enterococcus = assay: Antibacterial activity against vancomycin-resistant Enterococcus assessed as reduction in bacterial growth incubated for 24 hrs by broth microdilution method; type: functional
Acinetobacter baumannii = assay: Antibacterial activity against multidrug-resistant Acinetobacter baumannii assessed as reduction in bacterial growth incubated for 24 hrs by broth microdilution method; type: functional
Enterobacteriaceae = assay: Antibacterial activity against Carbapenem-Resistant Enterobacteriaceae assessed as reduction in bacterial growth incubated for 24 hrs by broth microdilution method; type: functional
NHDF [16] = assay: Cytotoxicity against HDF cells at 250 ug/ml incubated for 24 hrs by Alexa Fluor […] phalloidin-FITC/Hoescht dye staining based fluorescence microscopic analysis; type: cell-based; details: human
[17] = Cytotoxicity against HDF cells assessed as minimum cytotoxic concentration incubated for 24 hrs by Alexa Fluor […] phalloidin-FITC/Hoescht dye staining based fluorescence microscopic analysis; type: cell-based; details: human, HDF cells (NHDF, human dermal fibroblasts)

What does the source list for `COc1c(N2CCNC(C)C2)c(F)cc2c(=O)c(C(=O)O)cn(C3CC3)c12` (stereo not given) [GATIFLOXACIN]?
MIC (Enterococcus faecalis [1]): 8 µg/mL (≈ 21.3 µM); Activity (Staphylococcus aureus [2]): 2.5 log10CFU; Ratio (Enterococcus faecalis [3]): 8; MIC (Enterococcus faecalis [4]): 4 µg/mL (≈ 10.7 µM)

Which MIC (Enterococcus faecalis [1]) does the source give for `CCCCCCCCCC(=O)N[C@@H](Cc1c[nH]c2ccccc12)C(=O)N[C@H](CC(N)=O)C(=O)N[C@@H](CC(=O)O)C(=O)N[C@@H]1C(=O)NCC(=O)N[C@@H](CCCN)C(=O)N[C@@H](CC(=O)O)C(=O)N[C@H](C)C(=O)N[C@@H](CC(=O)O)C(=O)NCC(=O)N[C@H](CO)C(=O)N[C@@H]([C@@H](C)CC(=O)O)C(=O)N[C@@H](CC(=O)c2ccccc2N)C(=O)O[C@@H]1C` here?
The MIC was over 512 µg/mL.

What about the Ratio (Enterococcus faecalis [5]) of the same molecule?
The Ratio was over 128.

What about the Ratio (Enterococcus faecalis [6]) of the same molecule?
Its Ratio is 4.

And the MIC (Enterococcus faecalis [4])?
The MIC was 64 µg/mL (≈ 39.5 µM).

For `CC[C@H](C)[C@H](NC(=O)CN)C(=O)NCC(=O)N[C@@H](C)C(=O)N[C@H](C(=O)N[C@@H](CC(C)C)C(=O)NCCC[C@@H](CN)C(=O)N[C@H](C(=O)N[C@@H](CC(C)C)C(=O)N[C@H](C(=O)N[C@H](C(=O)NCC(=O)N[C@@H](CC(C)C)C(=O)N1CCC[C@H]1C(=O)N[C@@H](C)C(=O)N[C@@H](CC(C)C)C(=O)N[C@H](C(=O)N[C@@H](CO)C(=O)N[C@@H](Cc1c[nH]c2ccccc12)C(=O)N[C@H](C(=O)N[C@@H](CCCCN)C(=O)N[C@@H](CCCNC(=N)N)C(=O)N[C@@H](CCCCN)C(=O)N[C@@H](CCCNC(=N)N)C(=O)N[C@@H](CCC(N)=O)C(=O)N[C@@H](CCC(N)=O)C(N)=O)[C@@H](C)CC)[C@@H](C)CC)[C@@H](C)O)[C@@H](C)O)C(C)C)C(C)C`, which Activity (NHDF [7]) is on record?
The Activity was 100%.

What about the MCC at 24 h [8] of the same molecule?
The MCC at 24 h was over 125 µg/mL.

What about the MIC (Pseudomonas aeruginosa) of the same molecule?
Its MIC is 8 to 64 µg/mL (≈ 2.81 to 22.5 µM).

What about the MIC50 (Pseudomonas aeruginosa) of the same molecule?
The MIC50 was 16 µg/mL (≈ 5.62 µM).

What about the MIC (Staphylococcus aureus [9]) of the same molecule?
Its MIC is 8 to 32 µg/mL (≈ 2.81 to 11.2 µM).

What about the MIC (Candida albicans) of the same molecule?
Its MIC is 4 to 8 µg/mL (≈ 1.41 to 2.81 µM).

What about the MIC50 (Candida albicans) of the same molecule?
Its MIC50 is 4 µg/mL (≈ 1.41 µM).

And the viability at 24 h, 125 ug/ml [10]?
Its viability at 24 h, 125 ug/ml is 112%.

And the viability at 24 h, 250 ug/ml [11]?
The viability at 24 h, 250 ug/ml was 32.4%.

And the Activity (Lipid bilayer [12])?
Its Activity is 41.8%.

And the Activity (Lipid bilayer [13])?
Its Activity is 7.8%.

And the MIC (Staphylococcus aureus [14])?
The MIC was 4 to 32 µg/mL (≈ 1.41 to 11.2 µM).

And the MIC50 (Staphylococcus aureus [14])?
Its MIC50 is 16 µg/mL (≈ 5.62 µM).

What about the MIC50 (Staphylococcus aureus [15]) of the same molecule?
The MIC50 was 16 µg/mL (≈ 5.62 µM).

What about the MIC (Enterococcus) of the same molecule?
The MIC was 4 to 32 µg/mL (≈ 1.41 to 11.2 µM).

What about the MIC50 (Enterococcus) of the same molecule?
The MIC50 was 8 µg/mL (≈ 2.81 µM).

And the MIC (Acinetobacter baumannii)?
The MIC was 2 to 4 µg/mL (≈ 0.703 to 1.41 µM).

And the MIC50 (Acinetobacter baumannii)?
Its MIC50 is 2 µg/mL (≈ 0.703 µM).

What about the MIC (Enterobacteriaceae) of the same molecule?
Its MIC is 4 to 64 µg/mL (≈ 1.41 to 22.5 µM).

And the MIC50 (Enterobacteriaceae)?
The MIC50 was 8 µg/mL (≈ 2.81 µM).

What about the Activity (NHDF [16]) of the same molecule?
The Activity was “Toxic”.

And the MCC at 24 h [17]?
Its MCC at 24 h is over 125 µg/mL.
